Experimental data: patent US12419308B2, “Phenylpyrazole insecticide compounds and compositions” (priority 2023, dated 2025)
Read-outs that look alike come from different tables or passages of the source.

Key:
[1] = test system: Human Cryopreserved Hepatocytes; assay: Metabolic stability in human cryopreserved hepatocytes; assay type: in vitro ADME
Description: The metabolic stability of the Compounds of Examples 1 and 4 is therefore evaluated to determine whether metabolic degradation results in metabolites of concern.
Briefly, Human Cryopreserved Hepatocytes (Gibco, lot. HUE125) are added to incubation wells in a 96-well assay plate at a density of 500,000 cells/mL in William's E Medium. […] The wells are incubated at 37° C. and stop solution is added to wells at time points: 0, 30, 60, 120, 240 min. The stop solution is ice-cold solution containing 0.5 μM labetalol in acetonitrile (100 μL/well) (2:1, vol/vol). Each time point is tested in triplicate. Analysis is carried out by LC-MS.
• Instrument: QExactive • Column: Luna Omega 1.6 μm polar C18 100 Å (150×2.1 mm) • Column temperature: 40° C. • Column No: 102+pre-column installed • Injection volume: 2 μl • Flux: 0.40 mL/min • Polarity: Negative • Fluent A: water Milli Q+0.1% FA • Fluent B: ACN+0.1% FA • Acquisition method: Full MS+DDS on the IL obtained with MassMetaSite (peak others ON).

[2] = Egg concentration analysis from topically treated chickens; assay type: in vivo; conditions: in vivo
Description: One animal is left untreated as a negative control.
A modified and optimized QuEChERS protocol was employed to extract the compounds from eggs. The shell is manually removed, and then each egg is transferred to a clean beaker and homogenized with an electric mixer for small volumes. 5 grams of homogenized egg is put into a 50 mL Falcon tube, and 5 mL of water is added and the samples are shaken for 10 minutes. Next, 10 mL of acetonitrile is added and the samples are shaken again for 10 minutes. Then the roQ salts (4.0 g MgSO4, 1.0 g NaCl, 1.0 SCTD and 0.5 g SCDS, Phenomenex P/N KS08909) are added to each sample, and the mixture is well shaken for 10 minutes. Samples are then centrifuged at 2500 g for 5 minutes at room temperature, and the supernatant is transferred to an HPLC vial for analysis. The same HPLC-MS method is used as described above.
One egg from two chickens is analyzed: one chicken treated with Fipronil and one chicken treated with the Compound of Example 1. The eggs are both from Day 5. The results are shown in the following tables expressed as relative LC-MS peak area: […]

[3] = test system: adult worker honeybees, Apis mellifera L; assay: Acute oral toxicity test in honeybees (OECD 213); assay type: in vivo
Description: Untreated 50% w/v sucrose solution with 0.2% of propanol-water solution (ratio 80%-20%) is used as a negative control.
The test item is diluted with aqueous sucrose solution 50% (w/v) to prepare the oral solutions. The bees used for the oral test are anesthetized with carbon dioxide for the time necessary to immobilize them and placed inside the test cages; 2 hours before the treatment they are starved. A volume of 200 μL (20 μL/bee) of treated diet is administered to each cage with a dispenser (e.g., a syringe without tip), weighed before and after filling.
The overall exposure period is 6 hours, during which consumption is monitored: the feeder is changed at the end of the six hours or once the treated diet has been consumed (usually within 3-4 hours). In both cases, the feeder is weighed and a new feeder with untreated 50% (w/v) sucrose solution is provided ad libitum, and the mean effective dose is calculated based on the actual consumption.

[4] = test system: adult worker honeybees, Apis mellifera L; conditions: contact
Text: In accordance with OECD Test Guidelines No. 213 and 214, the test is considered valid if: (1) the average mortality of the control groups is ≤10% at the end of the test; and the average, control-corrected mortality of the reference item groups is ≥50% at the end of the test, at the tested dose (internal validity criteria according to POS BT200).
Young Apis mellifera L. worker honeybees are randomly collected in the morning of use or the day before from an adequately fed, healthy diseases-free and queen right beehive, not treated with chemical substances. Hives from an established apiary colony are used, and the colonies are inspected periodically, according to standard bee-keeping practices. All colonies are kept outside under field conditions and bees collect food from the environment. The last treatment against Varroa mites was done in November 2023. The bees are fed ad libitum with a water sucrose solution 50% w/v (or 500 g/L), prepared with tap water.
Adult worker honeybees are exposed to three increasing doses of the test item (see Table 2) by direct application to the thorax (droplets, see section 4.5.2). One control group is treated with propanol-water solution (ratio 80%-20%) in addition to test item groups.
Bee mortality is recorded after 4, 24 and 48 hours, and compared with the control value. If the mortality rate increases by more than 10% between 24 and 48 hours, whilst the control mortality rate remains ≤10%, the is extended to a maximum of 96 hours.
The test item is diluted in propanol-water solution (ratio 80%-20%) to prepare the contact solutions.
The bees used for the contact test are anaesthetized with carbon dioxide and individually treated by topical application of 2 μL of the test solutions onto the thorax using a micro applicator. The honeybees are then be moved to the cages and fed ad libitum with sucrose solution.
Disposable and well-ventilated cages with an internal volume not lower than 200 cm^3 are used. Each cage is equipped with a transparent lid, for a suitable observation of the bees from outside. The upper side of the cage has at least one hole for inserting the feeder: a syringe filled of 50% (w/v) aqueous sucrose solution is inserted in one hole.
The tests are conducted under the following conditions: (a) Temperature: 25.00[…]; (b) Relative humidity: 60.00[…], The honeybees are kept under constant darkness except during the assessments. Throughout the experimental phase, the temperature and relative humidity is continuously recorded with a dedicated data-logger with sensors located close to the test units.
The number of dead honeybees per cage is recorded after 4, 24 and 48 hours. If a prolonged observation period is required, further assessments are made every 24 hours, tip to a maximum duration of 96 hours. The amount of diet consumed per group is quantitatively estimated if treated diet will be left after 6 hours of exposure.
Data is summarized in tabular form, showing the number of live, dead and abnormal bees per experimental group. The mortality of each replicate is calculated as a percentage, comparing the number of dead bees to those introduced at the beginning. The mean value of the treated group is compared to the mean mortality of the respective control group(s) using the Abbott's formula modified by Schneider-Orelli (POS BT 200): […]

Dermanyssus gallinae = assay: Antiparasitic efficacy on live chickens with natural mite infestation; assay type: in vivo; conditions: by day 5 of treatment; 0.25% (w/v) spray, 7.5 mg/kg once daily for 5 days
Description: Two animals are treated with the compound of Example 1, and two animals are treated with Fipronil, while one animal is left untreated as a negative control. The infestation by D. gallinae is monitored by checking the density of mites in particular areas of the animal's bodies (feet, legs, and wings), comparing pre-treatment levels of infestation to post-treatment levels.
When all pests have been eliminated, a 100% pest control capability was achieved. In the case of some chemical products, when the pest was not fully eliminated, the disinfestation capacity was measured by averaging the number of infesting organisms located in three distinct areas of the treated animals, at the beginning of the treatment, and at the end of the treatment.

With `N#Cc1nn(-c2c(Cl)cc(C(F)(F)F)cc2Cl)c2nc(O)cc(C(F)F)c12` [Example 4, 1-(2,6-dichloro-4-(trifluoromethyl)phenyl)-4-(difluoromethyl)-6-hydroxy-1H-pyrazolo[3,4-b]pyridine-3-carbonitrile] as the compound, how does the “Original compound still present” value ([1]; after 240 minutes, 1 μM, 500,000 cells/mL, 37° C.) read?
The value was “approximately 84.2%”.

What about the “Metabolic stability (in words)” value ([1]; human hepatocytes, up to 240 min, 1 μM) of the same compound?
Its value is “highly metabolically stable”.

Which “Relative LC-MS peak area of analyte in egg” value (“Relative LC-MS peak area” below) [2] does the source give for `NC(=O)c1nn(-c2c(Cl)cc(C(F)(F)F)cc2Cl)c(N)c1[S+]([O-])C(F)(F)F` (stereo not drawn) [Fipronil Amide, Fipronil amide] here?
Its value is 3.8.

With `N#Cc1nn(-c2c(Cl)cc(C(F)(F)F)cc2Cl)c(N)c1S(=O)(=O)C(F)(F)F` [Fipronil Sulfone, Fipronil sulfone] as the compound, how does the “Relative LC-MS peak area” value ([2]; chicken, 5 days) read?
Its value is 5.6.

With `N#Cc1nn(-c2c(Cl)cc(C(F)(F)F)cc2Cl)c(N)c1[S+]([O-])C(F)(F)F` (stereo not drawn) [Fipronil, reference compound] as the compound, how does the “Relative LC-MS peak area” value ([2]; chicken, 5 days) read?
The value was 4.8.

What about the “% CM (4 hours)” value ([3]; group T1, dose 0.002 μg/bee) of the same compound?
The value was 0.0%.

And the “% CM (24 hours)” value ([3]; group T1, dose 0.002 μg/bee)?
Its value is 20.8%.

And the “% CM (48 hours)” value ([3]; group T1, dose 0.002 μg/bee)?
The value was 23.8%.

And the “% CM (4 hours)” value ([3]; group T2, dose 0.004 μg/bee)?
Its value is 0.0%.

And the “% CM (24 hours)” value ([3]; group T2, dose 0.004 μg/bee)?
The value was 37.5%.

And the “% CM (48 hours)” value ([3]; group T2, dose 0.004 μg/bee)?
The value was 33.3%.

And the “% CM (4 hours)” value ([3]; group T3, dose 0.006 μg/bee)?
Its value is 3.3%.

And the “% CM (24 hours)” value ([3]; group T3, dose 0.006 μg/bee)?
The value was 58.3%.

What about the “% CM (48 hours)” value ([3]; group T3, dose 0.006 μg/bee) of the same compound?
The value was 66.7%.

And the “% CM (4 hours)” value ([4]; group T1, dose 0.002 μg/bee)?
Its value is 0.0%.

And the “% CM (24 hours)” value ([4]; group T1, dose 0.002 μg/bee)?
The value was 7.1%.

And the “% CM (48 hours)” value ([4]; group T1, dose 0.002 μg/bee)?
The value was 7.7%.

And the “% CM (4 hours)” value ([4]; group T2, dose 0.004 μg/bee)?
Its value is 0.0%.

And the “% CM (24 hours)” value ([4]; group T2, dose 0.004 μg/bee)?
The value was 25.0%.

And the “% CM (48 hours)” value ([4]; group T2, dose 0.004 μg/bee)?
Its value is 30.8%.

What about the “% CM (4 hours)” value ([4]; group T3, dose 0.006 μg/bee) of the same compound?
The value was 0.0%.

What about the “% CM (24 hours)” value ([4]; group T3, dose 0.006 μg/bee) of the same compound?
The value was 71.4%.

And the “% CM (48 hours)” value ([4]; group T3, dose 0.006 μg/bee)?
Its value is 76.9%.

What about the “Chickens free of mites” value (Dermanyssus gallinae) of the same compound?
Its value is 100%.
